Results: patent US7763621B2, “Vitronectin receptor antagonist derivatives, method for preparing same, use thereof as medicines and pharmaceutical compositions containing same” (Galapagos SAS, priority 2002, dated 2010)

target: human αVβ3 receptor (Homo sapiens, UniProt P05106+P06756); experiment: Kistrin/Vitronectin receptor (αVβ3) ELISA test; assay type: binding; details: co-incubated 3 hours at ambient temperature, read-out: K/VnR IC50
Procedure: Pharmacological Test: Kistrin/Vitronectin Receptor (αVβ3) ELISA Test
96-well MaxiSorp plates are coated overnight at […] with 100 μl of Kistrin at 1 μg/ml (dilution in coating buffer: 0.05M (carbonate)/NaOH pH 9.6. The next day, the wells are emptied and the ligands (kistrin) are then fixed (fixation buffers: PBS containing 0.5% BSA (pH=7.4)) for 1 hour at ambient temperature under gentle stirring of 125 rpm. The wells are washed six times (washing buffer: PBS containing 0.05% Tween 20 (pH 7.7) then the following is added per well and in this order:
40 μl of incubation buffer
10 μl of the dilution of the product to be tested (the products are diluted in a 50:50 DMSO/water mixture)
50 μl of human αVβ3 receptor (cf Pytella et al. Methods Enzymol. (1987) 144 (Dilution in incubation buffer, adapted according to the batch of receptor and according to the ligand). The ligand, the αVβ3 receptor and the products to be studied are co-incubated for 3 hours at ambient temperature with gentle stirring of 125 rpm.
The wells are again washed six times, then incubated for 2 hours at ambient temperature with gentle stirring of 125 rpm, in the presence of 100 μl of anti-receptor antibody coupled to a peroxidase (The 4B12-HRP antibody is diluted in incubation buffer (50 mM TRIS pH 7.4; 0.5% BSA; 0.05% Tween 20; 1 mM MnCl2; 50 μM CaCl2; 50 μM MgCl2; 100 mM NaCl). The dilution is to be adapted according to the batch of receptor.
The wells are then washed six times before measurement of the ligand-receptor bond is carried out using a peroxidase developer kit (TBM Microwell Peroxidase Substrate System Kirkegaard; Ref cat 50-76-00).
This kit contains a flask A of substrate (3,3′,5,5′-tetramethylebenzidine at 0.4 g/l) and a flask B (0.02% H2O2 in Citrate/Citric acid). Extemporaneously, one volume of A is mixed with one volume of B, then the reaction mixture is distributed at a rate of 100 μl/well.
The enzymatic reaction develops between 6 to 10 minutes for Kistrin/αVβ3 then its development is stopped by the addition of 100 μl of 1M phosphoric acid. The optical density is determined at 450 nm.
Expression of the Results
The following curve is plotted: the bond percentage as a function of the logarithm of each concentration of the tested product. For each product the IC50 is determined according to the following formula: IC50=(B0+Bmin)/2
B0=Maximum bond in the absence of any product
Bmin=Minimum bond in the presence of the highest concentration of the product.

Chain of human αVβ3 receptor (P06756 31-889 limits assumed): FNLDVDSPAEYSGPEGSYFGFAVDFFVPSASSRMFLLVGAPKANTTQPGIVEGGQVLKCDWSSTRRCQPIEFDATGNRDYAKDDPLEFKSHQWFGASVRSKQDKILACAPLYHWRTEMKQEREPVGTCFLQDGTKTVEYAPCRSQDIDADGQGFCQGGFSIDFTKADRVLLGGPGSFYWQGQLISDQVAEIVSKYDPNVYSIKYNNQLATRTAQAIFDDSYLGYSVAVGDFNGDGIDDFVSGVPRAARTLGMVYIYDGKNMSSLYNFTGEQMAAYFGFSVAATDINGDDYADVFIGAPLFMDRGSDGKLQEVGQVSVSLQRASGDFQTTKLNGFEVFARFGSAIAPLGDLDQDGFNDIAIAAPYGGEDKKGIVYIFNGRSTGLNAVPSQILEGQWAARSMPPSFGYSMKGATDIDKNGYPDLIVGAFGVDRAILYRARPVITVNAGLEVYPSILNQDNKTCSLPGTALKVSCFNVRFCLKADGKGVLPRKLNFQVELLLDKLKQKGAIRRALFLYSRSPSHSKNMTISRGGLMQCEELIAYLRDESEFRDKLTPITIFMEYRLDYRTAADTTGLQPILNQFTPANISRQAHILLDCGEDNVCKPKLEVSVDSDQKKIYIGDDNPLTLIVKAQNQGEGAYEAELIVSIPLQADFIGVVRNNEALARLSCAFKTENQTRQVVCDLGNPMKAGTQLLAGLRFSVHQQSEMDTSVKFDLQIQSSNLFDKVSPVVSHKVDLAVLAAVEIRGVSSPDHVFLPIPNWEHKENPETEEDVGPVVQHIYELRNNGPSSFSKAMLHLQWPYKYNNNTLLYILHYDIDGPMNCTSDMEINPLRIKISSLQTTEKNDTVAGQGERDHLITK
Chain of human αVβ3 receptor (P06756 891-1048 partner limits assumed): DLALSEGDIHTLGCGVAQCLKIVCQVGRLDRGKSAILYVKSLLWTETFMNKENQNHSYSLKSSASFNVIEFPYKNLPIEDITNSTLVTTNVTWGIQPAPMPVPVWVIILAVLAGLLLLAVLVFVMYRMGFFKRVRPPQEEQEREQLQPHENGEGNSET
Chain of human αVβ3 receptor (P05106 27-788): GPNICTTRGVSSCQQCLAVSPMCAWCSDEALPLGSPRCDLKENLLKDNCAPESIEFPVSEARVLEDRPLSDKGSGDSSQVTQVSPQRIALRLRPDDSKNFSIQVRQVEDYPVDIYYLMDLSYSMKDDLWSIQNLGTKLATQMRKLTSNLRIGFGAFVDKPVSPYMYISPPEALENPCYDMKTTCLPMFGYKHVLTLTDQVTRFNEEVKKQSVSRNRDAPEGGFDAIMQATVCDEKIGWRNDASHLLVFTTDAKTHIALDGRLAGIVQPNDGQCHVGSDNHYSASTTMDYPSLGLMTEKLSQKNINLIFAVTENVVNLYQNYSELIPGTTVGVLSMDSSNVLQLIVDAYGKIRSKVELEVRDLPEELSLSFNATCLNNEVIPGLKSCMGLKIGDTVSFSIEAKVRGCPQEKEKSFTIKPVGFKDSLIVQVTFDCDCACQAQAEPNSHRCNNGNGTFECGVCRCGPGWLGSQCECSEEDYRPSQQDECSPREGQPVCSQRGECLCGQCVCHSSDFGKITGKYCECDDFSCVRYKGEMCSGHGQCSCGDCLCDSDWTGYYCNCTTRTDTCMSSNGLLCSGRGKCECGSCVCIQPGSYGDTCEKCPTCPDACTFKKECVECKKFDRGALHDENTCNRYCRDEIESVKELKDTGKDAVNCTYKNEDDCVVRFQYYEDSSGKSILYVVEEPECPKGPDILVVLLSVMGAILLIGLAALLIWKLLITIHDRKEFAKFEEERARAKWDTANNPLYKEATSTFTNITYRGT

Row | Structure (SMILES) | IC50 [nM]
1 | CCc1c(NCC(NC(=O)OCc2ccccc2)C(=O)O)ncnc1N1CCC(c2ccc3c(n2)NCCC3)CC1 (racemic) [Example 1, 3-[[5-ethyl-6-[4-(1,2,3,4-tetrahydro-1,8-naphthyridin-7-yl)-1-piperidinyl]-4-pyrimidinyl]amino]-N-[(phenylmethoxy)carbonyl]alanine, bis(trifluoroacetate)] | 3
2 | CCc1c(NCC(NC(=O)OCc2ccccc2)C(=O)O)ncnc1N1CCC(C(=O)N=C2NCCCN2)CC1 (racemic) [Example 2, 3-[[5-ethyl-6-[4-[(1,2,3,4,5,6-hexahydro-2-pyrimidinyl)iminocarbonyl]-1-piperidinyl]-4-pyrimidinyl]amino]-N-[(phenylmethoxy)carbonyl]alanine] | 160
3 | Cc1c(NCC(NC(=O)OCc2ccccc2)C(=O)O)ncnc1N1CCC(c2ccc3c(n2)NCCC3)CC1 (racemic) [Example 3, 3-[[6-[4-(1,2,3,4-tetrahydro-1,8-naphthyridin-7-yl)-1-piperidinyl]-5-methyl-4-pyrimidinyl]amino]-N-[(phenylmethoxy)carbonyl]alanine] | 3.1
4 | Cc1c(NCC(NC(=O)OCc2ccccc2)C(=O)O)ncnc1N1CCC(C(=O)N=C2NCCCN2)CC1 (racemic) [Example 4, 3-[[6-[4-[(1,2,3,4,5,6-hexahydro-2-pyrimidinyl)iminocarbonyl]-1-piperidinyl]-5-methyl-4-pyrimidinyl]amino]-N-[(phenylmethoxy)carbonyl]alanine] | 5.1

system: TPXT rats; experiment: Hypercalcemia induced by the parathyroid hormone (PTH) in a thyroparathyroidectomized (TPXT) rat model; assay type: in vivo; details: doses ranging from twice 1 mg/kg to twice 10 mg/kg by subcutaneous route in the rat, at time 0 and 3 hours; serum Ca at 6 hours
Procedure: Hypercalcemia induced by the parathyroid hormone (PTH) in a thyroparathyroidectomized (TPXT) rat model
Stimulation of bone resorption is induced in TPXT rats by perfusion of PTH and the variations of bone resorption are monitored by the concentration of calcium in the serum.
Male Sprague Dawley rats weighing 150-200 g are thyroparathyroidectomized. The rats are subjected to a standard diet containing 7 g Ca/kg (UAR) and Volvic water. The effectiveness of the thyroparathyroidectomy is tested by measuring the concentrations of Ca in the serum 8 days after the operation in animals which have been starved since the previous day. The rats are considered as thyroparathyroidectomized when the Ca levels in the serum are less than 80 mg/l. The PTH (1-34) of the rat (Bachem) is dissolved in 0.15M of NaCl Cys.HCl 2% and delivered by osmotic minipumps (ALZET 2001D) at a dose of 200 pmol/kg/h. The minipumps are introduced into the intraperitoneal cavities under anaesthesia (ketamine—75 mg/kg and acepromazine—2.5 mg/kg) of the TPXT rats which have been starved since the previous day. The control TPXT rats receive the minipumps filled with the PTH vehicle.
Either the product to be tested or the vehicle (controls and rats treated with the PTH) are administered twice by sub-cutaneous route (2 ml/kg of body weight) at time 0 and 3 hours after the start of the infusion of PTH. The test is continued for the next 6 hours. At the end of the treatment, all the blood is collected after decapitation. The blood samples are centrifuged at 3000 rpm for 15 minutes (CR422 Jouan) in order to obtain the serum.
The total concentrations of Ca in the serum are measured by colorimetry (Ciba-Corning) using an IEMS Labsystems microplate reading system, at 540 nm.
The difference between the average calcemia values of the treated rats and the control groups is analyzed by variance and by the Dunnett test.
The activity of a product is calculated by the following formula: […]

Row | Structure (SMILES) | activity against PTH-induced hypercalcemia (total Ca in the serum)
5 | Cc1c(NC[C@H](NC(=O)OCc2ccccc2)C(=O)O)ncnc1N1CCC(c2ccc3c(n2)NCCC3)CC1 [Example 6, 3-[[5-methyl-6-[4-(1,2,3,4-tetrahydro-1,8-naphthyridin-7-yl)-1-piperidinyl]-4-pyrimidinyl]amino]-N-[(phenylmethoxy)carbonyl]alanine, bis(trifluoroacetate)] | active
6 | CCc1c(NC[C@H](NC(=O)OCc2ccccc2)C(=O)O)ncnc1N1CCC(c2ccc3c(n2)NCCC3)CC1 [Example 9, 3-[[5-ethyl-6-[4-(1,2,3,4-tetrahydro-1,8-naphthyridin-7-yl)-1-piperidinyl]-4-pyrimidinyl]amino]-N-[(phenylmethoxy)carbonyl]alanine, bis(trifluoroacetate)] | active
7 | CCc1c(NC[C@H](NC(=O)OCc2ccccc2)C(=O)OC(C)C)ncnc1N1CCC(c2ccc3c(n2)NCCC3)CC1 [Example 13, isopropyl 3-[[6-[4-(1,2,3,4-tetrahydro-1,8-naphthyridin-7-yl)-1-piperidinyl]-5-ethyl-4-pyrimidinyl]amino]-N-[(phenylmethoxy)carbonyl]alaninate] | active
